Here are results for ten molecules from PubChem BioAssay (NCI).

Among the test systems are ACHN renal; U251 CNS; IGROV1 ovarian; MALME-3M melanoma; HCT-15 colon; NCI-H522 lung; SNB-75 CNS; CAKI-1 renal; SK-MEL-2 melanoma.
What all share (assay): NCI anticancer screen, dose series, 48 h

Structures are written as SMILES. Values joined by “and” are separate entries in the source; they are usually repeats but may differ in a detail not shown here. Identical values can stand only once.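 Tested at 5 concentrations; 48 h exposure; 96-well plates; endpoints linearly interpolated, else capped at highest concentration. GI50 is the concentration that inhibits growth by half. TGI is the concentration that stops growth completely.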

As to `COc1cc(C(=O)/C=C/c2c(C)n([O-])c3ccc(C)cc3[n+]2=O)cc(OC)c1OC`, the GI50 with ACHN renal was 2.23 µM; in the assay on U251 CNS it was 7.74 µM; in the assay with IGROV1 ovarian, 3.8 µM; in the assay on MALME-3M melanoma, 2.24 µM; with HCT-15 colon it was 1.8 µM; with NCI-H522 lung, 0.741 µM. Moreover, the figures for the GI50 in the assay on SNB-75 CNS, in the assay on CAKI-1 renal and in the assay with SK-MEL-2 melanoma were 14.5 µM, 2.2 µM and 15 µM, respectively. The TGI with ACHN renal worked out at 5.6 µM; in the assay with U251 CNS, 21 µM; in the assay on IGROV1 ovarian, 13 µM; in the assay on MALME-3M melanoma it was 5.2 µM; in the assay with HCT-15 colon it was 4.48 µM; in the assay on NCI-H522 lung, 2.29 µM. Besides, the values for the TGI with SNB-75 CNS and in the assay on SK-MEL-2 melanoma were 31.7 µM and 31.2 µM, respectively.
With `CC(C)(C)NNC(=O)/C(=C/c1ccc([N+](=O)[O-])cc1)NC(=O)c1ccccc1`, the TGI in the assay with ACHN renal is greater than 100 µM; in the assay with U251 CNS, greater than 100 µM; in the assay with IGROV1 ovarian, greater than 100 µM; with MALME-3M melanoma, greater than 100 µM; in the assay with HCT-15 colon, greater than 100 µM; with NCI-H522 lung, 73.3 µM. Further, the TGI with SNB-75 CNS, with CAKI-1 renal and in the assay with SK-MEL-2 melanoma was greater than 100 µM each time.
Consider `CC(=O)N[C@@H](Cc1ccc(OP(=O)(O)O)cc1)C(=O)N[C@H]1CCC(=O)N2CCC[C@@H](C(=O)NCc3ccc(Cl)cc3)N2C1=O`, for which the GI50 in the assay with ACHN renal, with U251 CNS, in the assay on IGROV1 ovarian, with MALME-3M melanoma, with HCT-15 colon and in the assay on NCI-H522 lung was greater than 25 µM each time. The GI50 with SNB-75 CNS, in the assay with CAKI-1 renal and in the assay on SK-MEL-2 melanoma was greater than 25 µM throughout. For the same molecule, the TGI with ACHN renal, with U251 CNS, in the assay with IGROV1 ovarian, in the assay with MALME-3M melanoma, in the assay with HCT-15 colon and in the assay with NCI-H522 lung was greater than 25 µM in each case. The TGI in the assay with SNB-75 CNS, in the assay on CAKI-1 renal and in the assay on SK-MEL-2 melanoma was greater than 25 µM throughout.
Consider `N#Cc1c(-c2ccccc2)nc(SCC2CO2)nc1N1CCOCC1` (stereo unspecified), for which the GI50 in the assay on ACHN renal was 4.27 µM; with U251 CNS, 19.2 µM; in the assay on IGROV1 ovarian it was 2.6 µM; in the assay on MALME-3M melanoma it was 2.32 µM; in the assay with HCT-15 colon, 4.71 µM; in the assay on NCI-H522 lung, 27.5 µM. The GI50 in the assay with SNB-75 CNS was 1.91 µM; with CAKI-1 renal, 1.07 µM; in the assay on SK-MEL-2 melanoma, 14.7 µM. Moreover, the TGI was greater than 100 µM in the assay on ACHN renal; greater than 100 µM in the assay on U251 CNS; 25.9 µM in the assay on IGROV1 ovarian; greater than 68.3 µM with MALME-3M melanoma; greater than 100 µM with HCT-15 colon; greater than 100 µM in the assay with NCI-H522 lung. Besides, the TGI in the assay with SNB-75 CNS is greater than 82.6 µM; in the assay with CAKI-1 renal, 17 µM; in the assay on SK-MEL-2 melanoma it was 75.7 µM.
For the molecule `CN(C)CCOc1ccc(-c2nc(-c3ccc4c(c3)CC/C4=N\O)c(-c3ccncc3)[nH]2)cc1`, the GI50 in the assay with ACHN renal was 4.79 µM and 5.03 µM; with U251 CNS, 4.83 µM and 2.35 µM; in the assay with IGROV1 ovarian, 4.38 µM and 18.6 µM; in the assay on MALME-3M melanoma, 0.00596 µM and 0.0186 µM; with HCT-15 colon, 9.22 µM and 15.5 µM; in the assay on NCI-H522 lung, 3.9 µM and 5.5 µM. For the same molecule, the GI50 in the assay on SNB-75 CNS was 0.403 µM and 1.11 µM; in the assay on CAKI-1 renal, 5.18 µM and 16.9 µM; with SK-MEL-2 melanoma, 0.108 µM and 0.367 µM. The TGI is 9.01 µM and 22 µM in the assay with ACHN renal; 9.15 µM and 4.69 µM with U251 CNS; 9.35 µM and 65.6 µM with IGROV1 ovarian; 25 µM and 57.4 µM with HCT-15 colon; 9.59 µM and 21 µM in the assay on NCI-H522 lung; 5.48 µM and 11 µM with SNB-75 CNS. Further, the TGI in the assay on CAKI-1 renal is 19.5 µM and 44.8 µM.
As for `COc1ccc2[nH]c(=O)c3c4ccccc4cn3c2c1`, the GI50 with ACHN renal is 0.486 µM; in the assay on U251 CNS, 0.388 µM; in the assay on IGROV1 ovarian, 0.575 µM; with MALME-3M melanoma, 0.911 µM; in the assay on HCT-15 colon, 0.31 µM; with NCI-H522 lung it was 0.576 µM. Further, the GI50 with SNB-75 CNS is 0.366 µM; with CAKI-1 renal it was 0.169 µM; in the assay with SK-MEL-2 melanoma, 1.35 µM. The TGI with ACHN renal stood at 1.72 µM; in the assay with U251 CNS it was 1.55 µM; with IGROV1 ovarian, 5.23 µM; with MALME-3M melanoma, 2.48 µM; with HCT-15 colon, 1.4 µM; with NCI-H522 lung it was 2.44 µM. For the same molecule, the values for the TGI in the assay on SNB-75 CNS, in the assay with CAKI-1 renal and in the assay with SK-MEL-2 melanoma were 9.47 µM, 0.839 µM and 7.66 µM, respectively.
Take `CC(NS(=O)(=O)c1ccc([N+](=O)[O-])cc1)C(=O)O` (stereo unspecified): the TGI in the assay with ACHN renal, in the assay on U251 CNS, in the assay with IGROV1 ovarian, in the assay with MALME-3M melanoma, in the assay with HCT-15 colon and with NCI-H522 lung was greater than 100 µM throughout. Moreover, the TGI with SNB-75 CNS, in the assay on CAKI-1 renal and with SK-MEL-2 melanoma was greater than 100 µM in each case.
In the case of `O=C(Nc1ccccc1-c1n[nH]c(=S)[nH]c1=O)C(F)(F)F`, the TGI in the assay with ACHN renal, in the assay with U251 CNS, in the assay with IGROV1 ovarian, in the assay on MALME-3M melanoma, in the assay with HCT-15 colon and with NCI-H522 lung was greater than 100 µM each time. Moreover, the TGI in the assay with SNB-75 CNS, in the assay on CAKI-1 renal and in the assay on SK-MEL-2 melanoma was greater than 100 µM each time.
Regarding `Cc1cc2nc(C(C)C(=O)c3ccc(Cl)cc3)c(=O)[nH]c2cc1C` (stereo unspecified), the TGI in the assay with ACHN renal, in the assay on U251 CNS, in the assay on IGROV1 ovarian, with MALME-3M melanoma, in the assay with HCT-15 colon and with NCI-H522 lung was greater than 100 µM each time. The TGI in the assay with SNB-75 CNS, in the assay on CAKI-1 renal and in the assay on SK-MEL-2 melanoma was greater than 100 µM throughout.
Consider `COc1cc(C2c3[nH]c4ccccc4c3C[C@H]3COC(=O)N23)cc(OC)c1OC` (stereo partly specified), for which the GI50 is less than 0.01 µM in the assay with ACHN renal; less than 0.01 µM in the assay with U251 CNS; 0.0655 µM and < 0.01 µM with IGROV1 ovarian; less than 0.01 µM in the assay with MALME-3M melanoma; less than 0.01 µM in the assay on HCT-15 colon; less than 0.01 µM with NCI-H522 lung. Moreover, the GI50 in the assay on SNB-75 CNS, in the assay on CAKI-1 renal and in the assay on SK-MEL-2 melanoma was less than 0.01 µM throughout. The TGI was greater than 100 µM in the assay on ACHN renal; greater than 100 µM in the assay on U251 CNS; greater than 100 µM with IGROV1 ovarian; greater than 100 µM with MALME-3M melanoma; 6.72 µM and 1.39 µM in the assay with HCT-15 colon; 0.04 µM and < 0.01 µM in the assay on NCI-H522 lung. Further, the TGI in the assay on SNB-75 CNS, with CAKI-1 renal and in the assay on SK-MEL-2 melanoma was greater than 100 µM each time.
